These results are taken from ChEMBL document CHEMBL3217493, “Approaches to discover non-ATP site kinase inhibitors” (Medchemcomm, 2013).

In the assay the target is Mitogen-activated protein kinase 1 (Homo sapiens, UniProt P28482). Put plainly: Binding affinity to ERK2 (unknown origin).
Chain of Mitogen-activated protein kinase 1 (P28482 whole entry): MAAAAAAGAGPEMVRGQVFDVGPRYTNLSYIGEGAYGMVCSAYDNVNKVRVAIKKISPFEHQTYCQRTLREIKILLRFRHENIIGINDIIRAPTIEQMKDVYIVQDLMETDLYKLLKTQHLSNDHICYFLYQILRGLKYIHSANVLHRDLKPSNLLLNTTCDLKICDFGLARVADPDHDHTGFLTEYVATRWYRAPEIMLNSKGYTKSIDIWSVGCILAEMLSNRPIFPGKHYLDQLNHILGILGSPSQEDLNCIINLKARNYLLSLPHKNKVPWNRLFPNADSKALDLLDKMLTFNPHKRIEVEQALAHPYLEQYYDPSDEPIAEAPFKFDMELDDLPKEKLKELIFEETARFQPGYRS

By Kd is commonly meant the free concentration of one partner at which half of the binding sites on the other are occupied at equilibrium, for simple one-to-one binding. Read a high Kd as weaker binding. Compound `COc1ccc(/C=C2\SC(=O)N(CCN)C2=O)cc1` gave a dissociation constant (Kd) of 5 µM.
